# Source: patent publication US12083109B2, “Neurokinin antagonists and uses thereof” (California Institute of Technology, priority 2017, dated 2024)
# Columns and labels:
# [1] = molecular target: T1, Nk3R (Mus musculus, UniProt P47937); assay: Tone fear conditioning test (freezing to conditioned tone), osanetant; assay type: in vivo; design: from tissue; host or cells: Living mice (wild-type C57Bl6/N males, Charles River); details: for SIS-induced persistent (post) freezing to fear-conditioned tone: SIS mice; for acute (and thereby persistent) freezing to conditioned threatening stimulus (tone): osanetant injection into CeA; for SIS-induced persistent freezing to conditioned tone: osanetant microinfusion into dBNSTa, 375 ng per site, 20 min before test
# T1 sequence (P47937 1-452): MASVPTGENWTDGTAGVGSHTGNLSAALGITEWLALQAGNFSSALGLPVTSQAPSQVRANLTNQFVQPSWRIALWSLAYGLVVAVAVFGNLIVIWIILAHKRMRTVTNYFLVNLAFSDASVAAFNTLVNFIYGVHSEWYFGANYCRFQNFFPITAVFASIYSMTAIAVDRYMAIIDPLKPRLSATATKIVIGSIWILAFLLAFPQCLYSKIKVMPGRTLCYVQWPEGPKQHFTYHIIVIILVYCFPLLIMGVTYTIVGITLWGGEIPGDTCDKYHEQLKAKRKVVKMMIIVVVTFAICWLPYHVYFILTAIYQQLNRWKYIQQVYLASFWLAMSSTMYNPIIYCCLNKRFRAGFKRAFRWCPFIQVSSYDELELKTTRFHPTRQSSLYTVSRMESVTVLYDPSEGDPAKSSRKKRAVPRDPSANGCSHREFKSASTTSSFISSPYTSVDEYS
# Experimental: The protocol for tone trace fear conditioning was performed as previously described (Cushman et al., 2014; incorporated by reference in its entirety) using fear conditioning boxes previously described in detail (Haubensak et al., 2010; Kunwar et al., 2015; incorporated by reference in their entirety). Briefly, mice were transported in squads of four on a white cart to a novel behavioral testing room containing 4 sound-attenuating fear-conditioning chambers (Med Associates). This “training context” was comprised of flat grid flooring (wired to a shock generator and scrambler for footshock delivery, Med Associates), houselights, and the presence of an internal fan for background noise. Chambers were sprayed with 70% Simple Green solution on the underlying chamber pan to generate a unique contextual scent and chambers were cleaned with 70% EtOH between squads. Trace fear conditioning consisted of a 3 minute baseline period followed by 3 tone-shock trials consisting of a 20 second tone conditional stimulus (CS; 75 dB, 2800 Hz), a 20 second trace interval and a 2 second footshock unconditional stimulus (US; 0.7 mA). The inter-trial interval (ITI) between trials was 60 seconds. Mice remained in the chambers an additional 60 seconds before being transported back to the vivarium. The following day, mice were transported in fresh cardboard boxes to a novel behavioral testing room consisting of 4 distinct fear-conditioning boxes to test for tone fear. The “test context” consisted of the houselights and fan turned off, uneven grid flooring, a 1% acetic acid scent and a black plastic insert used to generate a triangular roof. Testing was performed identical to training with the exception that shocks were omitted from test trials to allow for behavior assessment to the tone. A single shock was administered in the last minute of testing to assess activity burst responding to the shock. This allowed assessment of reactivity to the shock under our various manipulations performed during testing without disrupting fear acquisition by performing manipulations during training. All experimental manipulations and data shown herein were performed during the test phase of fear conditioning (training data not shown). Training and testing context were counterbalanced across mice. Freezing behavior during the baseline period as well as during each tone presentation (“during”) and trace interval (“post”) were assessed as previously described (Zelikowsky et al., 2014; incorporated by reference in its entirety) using automated near-infrared video tracking equipment and computer software (VideoFreeze, Med Associates). Shock reactivity (motion, arbitrary units) was measured during the 2 second shock US as well as the 3 seconds immediately following.
# Mice were administered the Nk3R antagonist osanetant (Axon Medchem, Axon 1533) either systemically or intra-brain region. Osanctant was dissolved in saline with 0.1% Tween 20 (vehicle). For systemic administration mice received an intraperitoneal (i.p.) injection (5 mg/kg) 20 minutes prior to behavioral testing. For microinfusions, guide cannulas were removed from mice and replaced with injector cannulas (Plastics One), which protruded 0.5 mm from the tip of the guide cannula. Injectors were attached to 5 μl Hamilton syringes with PE tubing (Plastics One) and mounted on a microinfusion pump (Harvard Apparatus) for controlled infusion of osanetant (0.3 μl vehicle with 375 ng dose per site injected over 6 minutes). For experiments using systemic administration of clozapine-N-oxide (CNO), CNO (Enzo Life Sciences-Biomol, BML-NS105-0005) was dissolved in saline (9 g/L NaCl) and injected (i.p.) at 5 mg/kg for hM4DREADD silencing or 2 mg/kg for hM3DREADD activation 20 minutes prior to behavioral testing. CNO was also administered chronically in drinking water (0.5 mg CNO/100 ml water).
# [2] = molecular target: T1, Nk3R; assay: as above; assay type: in vivo; design: from tissue; host or cells: Living mice (wild-type C57Bl6/N males, Charles River); details: osanetant daily during two-week isolation, tested off-drug
structure (smiles),measurement,setting,value
"CC(=O)N(C)C1(c2ccccc2)CCN(CCC[C@]2(c3ccc(Cl)c(Cl)c3)CCCN(C(=O)c3ccccc3)C2)CC1 [osanetant, N-(1-{3-[(3R)-1-benzoyl-3-(3,4-dichlorophenyl)piperidin-3-yl]propyl}-4-phenylpiperidin-4-yl)-N-methylacetamide]",SIS-induced persistent (post) freezing to fear-conditioned tone,[1]; osanetant 5 mg/kg i.p. 20 min before test,blocked
same,SIS-induced persistent (post) freezing to fear-conditioned tone,"[1]; osanetant 5 mg/kg i.p. 20 min before test, listed as Osanetant",attenuated
same,freezing during presentation of conditioned tone (acute),"[1]; osanetant 5 mg/kg i.p. 20 min before test, between groups",no significant differences
same,acute (and thereby persistent) freezing to conditioned threatening stimulus (tone),[1],reduced
same,acute (and thereby persistent) freezing to conditioned threatening stimulus (tone),[1]; listed as Osanetant,selectively blocked
same,persistent responses to conditioned tone,[1]; osanetant microinfusion into DMH,had no effect
same,SIS-induced persistent freezing to conditioned tone,[1],selectively inhibited
same,SIS-induced persistent freezing to conditioned tone,[1]; listed as Osanetant,selectively blocked
same,persistent freezing to fear conditioned tone,[2],prevented
